One test concerns SPF-grade rats. Put plainly: Rat bowel preparation experiment (bowel cleansing effect). The test is classed as in vivo. The source says: Experimental materials: L-arabinose, selected from the L-arabinose crystallization sample with batch No. 1221 in the example, prepared into a 0.4 g/mL solution with purified water; PEG (Shutaiqing), prepared into a 0.521 g/mL PEG solution with purified water; SPF-grade rats (Zhejiang Vital River Laboratory Animal Technology Co., Ltd.). • 5.1. Experimental animals and feeding thereof: SPF (specific pathogen free)-grade rats (200±10 g), 6 weeks old; normal feed was D12450-B feed: 67.35 wt % carbohydrates, 19.2 wt % crude protein, and 4.3 wt % fat. The temperature of the room was kept at 24° C. to 26° C. with humidity at 40% to 60%. • 5.2. Experimental method and procedures:
The SPF-grade rats were randomly divided into a blank control group, a positive control group, and a treatment group, 10 animals per group, half being male and half female. Administration method: Animals in each group were fasted (water was accessible) starting at 22:00 the night before experiment, were each given ½ the calculated amount of drug by intragastrical administration at 7:00 and 9:00 on the day of experiment, were each given 2.0 mL of purified water at 12:00 and 13:00, and were dissected 3.5 h after the last administration.

The next test deals with constipation model rats. Put plainly: Therapeutic effect on constipation model rats (modeling with compound diphenoxylate). The test is classed as in vivo, rat. The following applies: n = 8; for Time for first dark stools min: first administration with 5% activated carbon; for Time for first dark stools min / Small intestine propulsion rate %: x ± sd; for Small intestine propulsion rate %: gavage once daily; for Water content of stools %: stools collected on day 7, x ± sd. An excerpt: • Modeling procedure: modeling with compound diphenoxylate. • Experimental drugs and reagents: activated carbon (5%); a 0.4 g/mL aqueous solution prepared from an arabinose drug. • Positive control: PEG (Shutaiqing). SPF-grade rats (Zhejiang Vital River Laboratory Animal Technology Co., Ltd.).
Except for the normal group, the successfully modeled rats were randomly divided into 5 groups, including a model group, a low dose group, a medium dose group, a high dose group, and a positive control group, 8 animals per group. Each rat was housed individually in separate cages, and operations were conducted fixedly at 10:00-12:00 every day. The normal group and the model group were gavaged with 0.2 mL of purified water. The positive control group was gavaged with 0.133 mL of a mosapride solution, and the low dose group, the medium dose group, and the high dose group were gavaged with 0.01 mL, 0.02 mL, and 0.04 mL of the test drug, respectively, with the volume adjusted to 0.2 mL using purified water. The rats had free access to food and water. The administration was performed for 7 consecutive days (times).
For the first administration, the drug with 5% activated carbon (based on 0.2 g×5%) added was intragastrically administered to the treatment group, and 0.2 mL of purified water with activated carbon added was intragastrically administered to the normal group and the model group. The time for the first dark stools was recorded.
The rats were intragastrically administered once daily. On day 7 after the continuous administration, the stools were collected using a sterile centrifuge tube and stored at −100° C. The collected stools were dried at 105° C. to a constant weight, and the water content of the stools was calculated according to the formula: water content of stools=(1−mass after drying/mass before drying)×100%.
The rats were intragastrically administered once daily for 14 days and then fasted for 12 h. 1 h after the last administration, each group of animals was gavaged with 0.15 mL of 5% activated carbon, and 30 min later, the rats were anesthetized with an intraperitoneal injection of 10% chloral hydrate. After anesthesia was completed, the abdominal operation was immediately performed. The intestinal canal from pylorus to ileocecal junction was cut off and placed on a glass plate. The length of the intestinal tract traversed by the ink and the total length of the intestinal tract were measured. The intestinal propulsion rate was the ratio of the two. The total length from pylorus to ileocecal junction and the distance from pylorus to the front of the carbon ink were measured, and the carbon ink propulsion percentage was calculated. Intestinal propulsion rate=distance from front of carbon ink to pylorus/full length of small intestine×100%.

With `O=C[C@H](O)[C@@H](O)[C@@H](O)CO` [L-arabinose, L-Arabinose], in the test with SPF-grade rats (9 g/kg L-arabinose vs 21.9 g/kg PEG), the “Dosage relative to that administered to the positive control group to achieve the same effect” value turned out to be 41%. Moreover, the “Stools observed before the dissection” value in the test on SPF-grade rats (L-arabinose batch No. 1221, 9 g/kg (22.5 mL/kg) intragastric in 2 doses, fasted rats) was “Watery and loose stools”. In addition, the “Residue in the rectum and colon after the dissection” value in the test with SPF-grade rats (L-arabinose batch No. 1221, 9 g/kg intragastric in 2 doses, dissected 3.5 h after last administration) was “no residue was left in the rectum and colon”. For the same compound, in the test with constipation model rats (High dose 0.80 g kg/d), the “Time for first dark stools min” value was found to be 63 ± 5.7 min, the “Small intestine propulsion rate %” value is listed as 83% ± 2.8 and the “Water content of stools %” value is given as 61% ± 2.4. Also, in the test on constipation model rats (Low dose 0.20 g kg/d), the “Time for first dark stools min” value is 76 ± 8.5 min, the “Small intestine propulsion rate %” value was 75% ± 3.1 and the “Water content of stools %” value was 54% ± 1.8. Besides, in the test with constipation model rats (Medium dose 0.40 g kg/d), the “Time for first dark stools min” value stood at 64 ± 6.2 min, the “Small intestine propulsion rate %” value is given as 80% ± 2.7 and the “Water content of stools %” value is 59% ± 2.7.

As to `CCOc1cc(N)c(Cl)cc1C(=O)NCC1CN(Cc2ccc(F)cc2)CCO1` (stereo not drawn) [Positive control, reference compound], in the test with constipation model rats (Positive control 2.0 mg kg/d), the “Time for first dark stools min” value came to 67 ± 8.8 min, the “Small intestine propulsion rate %” value was 82% ± 4.4 and the “Water content of stools %” value is recorded as 57% ± 0.9.

For the origin of these results see patent US20260226089A1, “METHOD FOR CONTROLLING IMPURITIES IN L-ARABINOSE AND USE THEREOF” (THOMSON BIOTECH (XIAMEN) PTE. LTD., priority 2023, published 2026).
